Test results taken from ChEMBL document CHEMBL1201861, “Genomics of Drug Sensitity in Cancer screening data, Wellcome Trust Sanger Institute”.

Experiments:
Assay in all cases: cells
Conditions in all cases: Homo sapiens
KYSE-410 = format: functional, cell-based;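 note: growth inhibition of KYSE-410 cells, measured through a cell viability readout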
Description: SANGER: Inhibition of human KYSE-410 cell growth in a cell viability assay.

MV4-11 = format: functional, cell-based, MV-4-11;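 note: cell viability readout measuring growth inhibition of human MV-4-11 cells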
Description: SANGER: Inhibition of human MV-4-11 cell growth in a cell viability assay.

LB2241-RCC = format: functional, cell-based;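 note: cell viability assay measuring how strongly the cultured human renal carcinoma line is prevented from growing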
Description: SANGER: Inhibition of human LB2241-RCC cell growth in a cell viability assay.

M14 = format: functional, cell-based;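 note: growth inhibition of M14 cells, read out with a cell viability assay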
Description: SANGER: Inhibition of human M14 cell growth in a cell viability assay.

KURAMOCHI = format: functional, cell-based;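 note: growth inhibition of KURAMOCHI cells, read out with a cell viability assay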
Description: SANGER: Inhibition of human KURAMOCHI cell growth in a cell viability assay.

CAS-1 = format: functional, cell-based;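 note: growth inhibition of CAS-1 cells, measured with a cell viability assay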
Description: SANGER: Inhibition of human CAS-1 cell growth in a cell viability assay.

KG-1 = format: functional, cell-based;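 note: growth inhibition of KG-1 cells, read out by a cell viability assay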
Description: SANGER: Inhibition of human KG-1 cell growth in a cell viability assay.

NH-12 = format: functional, cell-based;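 note: growth inhibition of NH-12 cells, read out with a cell viability assay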
Description: SANGER: Inhibition of human NH-12 cell growth in a cell viability assay.

NCI-H69 = format: functional, cell-based;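 note: growth inhibition of the cell line, read out with a cell viability assay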
Description: SANGER: Inhibition of human NCI-H69 cell growth in a cell viability assay.

EKVX = format: functional, cell-based;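 note: growth inhibition of human EKVX cells, read out with a cell viability assay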
Description: SANGER: Inhibition of human EKVX cell growth in a cell viability assay.

LU-134-A = format: functional, cell-based
Description: SANGER: Inhibition of human LU-134-A cell growth in a cell viability assay.

IST-MES1 = format: functional, cell-based;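 note: growth inhibition of IST-MES1 cells, measured with a cell viability assay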
Description: SANGER: Inhibition of human IST-MES1 cell growth in a cell viability assay.

ES6 = format: functional, cell-based;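 note: growth inhibition of human ES6 cells, read out with a cell viability assay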
Description: SANGER: Inhibition of human ES6 cell growth in a cell viability assay.

NCI-H23 = format: functional, cell-based;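 note: cell viability assay measuring growth inhibition of NCI-H23 cells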
Description: SANGER: Inhibition of human NCI-H23 cell growth in a cell viability assay.

KARPAS-299 = format: functional, cell-based
Description: SANGER: Inhibition of human KARPAS-299 cell growth in a cell viability assay.

NKM-1 = format: functional, cell-based;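 note: growth inhibition of NKM-1 cells, read out with a cell viability assay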
Description: SANGER: Inhibition of human NKM-1 cell growth in a cell viability assay.

LAN-6 = format: functional, cell-based;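 note: growth inhibition of LAN-6 cells, determined with a cell viability assay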
Description: SANGER: Inhibition of human LAN-6 cell growth in a cell viability assay.

TE-11 = format: functional, cell-based;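 note: growth inhibition of human TE-11 cells, read out by a cell viability assay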
Description: SANGER: Inhibition of human TE-11 cell growth in a cell viability assay.

OVCAR-4 = format: functional, cell-based;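 note: growth inhibition of human OVCAR-4 cells, measured with a cell viability assay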
Description: SANGER: Inhibition of human OVCAR-4 cell growth in a cell viability assay.

SF-268 = format: functional, cell-based;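 note: growth inhibition of SF-268 cells determined with a cell viability assay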
Description: SANGER: Inhibition of human SF268 cell growth in a cell viability assay.

LB2518-MEL = format: functional, cell-based;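 note: growth inhibition of human LB2518-MEL cells, measured with a cell viability assay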
Description: SANGER: Inhibition of human LB2518-MEL cell growth in a cell viability assay.

LU-99A = format: functional, cell-based;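 note: growth inhibition of LU-99A cells, read out with a cell viability assay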
Description: SANGER: Inhibition of human LU-99A cell growth in a cell viability assay.

TE-1 = format: functional, cell-based
Description: SANGER: Inhibition of human TE-1 cell growth in a cell viability assay.

SK-MEL-1 = format: functional, cell-based;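 note: growth inhibition of human SK-MEL-1 cells, read out by a cell viability assay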
Description: SANGER: Inhibition of human SK-MEL-1 cell growth in a cell viability assay.

TGBC1TKB = format: functional, cell-based;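 note: growth inhibition of TGBC1TKB cells, read out by a cell viability assay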
Description: SANGER: Inhibition of human TGBC1TKB cell growth in a cell viability assay.

PANC-08-13 = format: functional, cell-based;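 note: cell growth inhibition, measured with a cell viability assay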
Description: SANGER: Inhibition of human PANC-08-13 cell growth in a cell viability assay.

no-11 = format: functional, cell-based;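 note: growth inhibition of human NO-11 cells, read out with a cell viability assay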
Description: SANGER: Inhibition of human no-11 cell growth in a cell viability assay.

SH-4 = format: functional, cell-based;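 note: growth inhibition of SH-4 cells, read out with a cell viability assay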
Description: SANGER: Inhibition of human SH-4 cell growth in a cell viability assay.

ATN-1 = format: functional, cell-based;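 note: growth inhibition of human ATN-1 cells, read out with a cell viability assay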
Description: SANGER: Inhibition of human ATN-1 cell growth in a cell viability assay.

HEL = format: functional, cell-based;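 note: growth inhibition of HEL cells, read out with a cell viability assay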
Description: SANGER: Inhibition of human HEL cell growth in a cell viability assay.

EW-11 = format: functional, cell-based;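 note: growth inhibition of human EW-11 cells, measured with a cell viability assay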
Description: SANGER: Inhibition of human EW-11 cell growth in a cell viability assay.

EFM-19 = format: functional, cell-based;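 note: growth inhibition of human EFM-19 cells, measured in a cell viability assay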
Description: SANGER: Inhibition of human EFM-19 cell growth in a cell viability assay.

GB-1 = format: functional, cell-based;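 note: growth of GB-1 cells judged by a viability assay, IC50 marks the concentration inhibiting growth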
Description: SANGER: Inhibition of human GB-1 cell growth in a cell viability assay.

NCI-H446 = format: functional, cell-based;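 note: growth inhibition of NCI-H446 cells determined by a cell viability assay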
Description: SANGER: Inhibition of human NCI-H446 cell growth in a cell viability assay.

MN-60 = format: functional, cell-based;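 note: growth inhibition of the MN-60 cell line, determined with a cell viability assay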
Description: SANGER: Inhibition of human MN-60 cell growth in a cell viability assay.

NCI-H1770 = format: functional, cell-based;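 note: growth inhibition of NCI-H1770 cells determined with a viability readout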
Description: SANGER: Inhibition of human NCI-H1770 cell growth in a cell viability assay.

P30-OHK = format: functional, cell-based;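 note: growth inhibition of the P30-OHK cell line, read out with a cell viability assay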
Description: SANGER: Inhibition of human P30-OHK cell growth in a cell viability assay.

NCI-H1092 = format: functional, cell-based;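 note: cell growth inhibition measured with a cell viability assay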
Description: SANGER: Inhibition of human NCI-H1092 cell growth in a cell viability assay.

RXF 393 = format: functional, cell-based;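 note: growth inhibition of human RXF 393 cells, read out with a cell viability assay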
Description: SANGER: Inhibition of human RXF393 cell growth in a cell viability assay.

RCC10RGB = format: functional, cell-based;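 note: growth inhibition of human RCC10RGB cells, read out by a cell viability assay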
Description: SANGER: Inhibition of human RCC10RGB cell growth in a cell viability assay.

NCI-H526 = format: functional, cell-based;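 note: growth inhibition of the human NCI-H526 cell line, measured by a cell viability assay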
Description: SANGER: Inhibition of human NCI-H526 cell growth in a cell viability assay.

PSN1 = format: functional, cell-based;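 note: suppression of growth of human PSN1 cells, read out by a cell viability assay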
Description: SANGER: Inhibition of human PSN1 cell growth in a cell viability assay.

KGN = format: functional, cell-based;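 note: growth inhibition of KGN cells, read out with a cell viability assay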
Description: SANGER: Inhibition of human KGN cell growth in a cell viability assay.

NCI-H1838 = format: functional, cell-based;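 note: growth inhibition of NCI-H1838 cells, determined with a cell viability readout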
Description: SANGER: Inhibition of human NCI-H1838 cell growth in a cell viability assay.

VM-CUB-1 = format: functional, cell-based;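 note: cell viability assay measuring growth inhibition of the human VM-CUB-1 cell line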
Description: SANGER: Inhibition of human VM-CUB-1 cell growth in a cell viability assay.

HuP-T4 = format: functional, cell-based;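 note: cell viability assay measuring how much HuP-T4 cell growth is inhibited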
Description: SANGER: Inhibition of human HuP-T4 cell growth in a cell viability assay.

EFO-21 = format: functional, cell-based;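 note: growth inhibition of EFO-21 cells measured with a viability assay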
Description: SANGER: Inhibition of human EFO-21 cell growth in a cell viability assay.

NCI-H1355 = format: functional, cell-based;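 note: growth inhibition of human NCI-H1355 cells, read out by a cell viability assay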
Description: SANGER: Inhibition of human NCI-H1355 cell growth in a cell viability assay.

EW-13 = format: functional, cell-based;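 note: growth inhibition of EW-13 cells, read out with a cell viability assay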
Description: SANGER: Inhibition of human EW-13 cell growth in a cell viability assay.

SK-N-FI = format: functional, cell-based;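 note: cell viability assay measuring growth inhibition of human SK-N-FI cells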
Description: SANGER: Inhibition of human SK-N-FI cell growth in a cell viability assay.

NCI-H720 = format: functional, cell-based;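 note: growth inhibition of human NCI-H720 cells determined by a cell viability assay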
Description: SANGER: Inhibition of human NCI-H720 cell growth in a cell viability assay.

A498 = format: functional, cell-based;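 note: growth inhibition of human A498 cells, read out with a cell viability assay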
Description: SANGER: Inhibition of human A498 cell growth in a cell viability assay.

COLO-320-HSR = format: functional, cell-based
Description: SANGER: Inhibition of human COLO-320-HSR cell growth in a cell viability assay.

G-401 = format: functional, cell-based
Description: SANGER: Inhibition of human G-401 cell growth in a cell viability assay.

LU-139 = format: functional, cell-based
Description: SANGER: Inhibition of human LU-139 cell growth in a cell viability assay.

SW982 = format: functional, cell-based
Description: SANGER: Inhibition of human SW982 cell growth in a cell viability assay.

Lu-65 = format: functional, cell-based
Description: SANGER: Inhibition of human LU-65 cell growth in a cell viability assay.

EC-GI-10 = format: functional, cell-based
Description: SANGER: Inhibition of human EC-GI-10 cell growth in a cell viability assay.

SCH = format: functional, cell-based
Description: SANGER: Inhibition of human SCH cell growth in a cell viability assay.

SK-MEL-2 = format: functional, cell-based
Description: SANGER: Inhibition of human SK-MEL-2 cell growth in a cell viability assay.

HH = format: functional, cell-based
Description: SANGER: Inhibition of human HH cell growth in a cell viability assay.

L-363 = format: functional, cell-based
Description: SANGER: Inhibition of human L-363 cell growth in a cell viability assay.

LS-123 = format: functional, cell-based
Description: SANGER: Inhibition of human LS-123 cell growth in a cell viability assay.

SJSA-1 = format: functional, cell-based
Description: SANGER: Inhibition of human SJSA-1 cell growth in a cell viability assay.

CCNC(=O)c1noc(-c2cc(C(C)C)c(O)cc2O)c1-c1ccc(CN2CCOCC2)cc1 [LUMINESPIB]
IC50 (KYSE-410): 15.9 nM
IC50 (MV4-11): 0.558 nM
IC50 (LB2241-RCC): 36.4 nM
IC50 (M14): 218 nM
IC50 (KURAMOCHI): 61.9 nM
IC50 (CAS-1): 120 nM
IC50 (KG-1): > 256 nM
IC50 (NH-12): 44.4 nM
IC50 (NCI-H69): > 256 nM
IC50 (EKVX): 105 nM
IC50 (LU-134-A): 57.1 nM
IC50 (IST-MES1): > 256 nM
IC50 (ES6): 12.6 nM
IC50 (NCI-H23): 241 nM
IC50 (KARPAS-299): 230 nM
IC50 (NKM-1): 5.47 nM
IC50 (LAN-6): 85 nM
IC50 (TE-11): 200 nM
IC50 (OVCAR-4): 38.6 nM
IC50 (SF-268): 34 nM
IC50 (LB2518-MEL): > 256 nM
IC50 (LU-99A): 72.9 nM
IC50 (TE-1): 15.8 nM
IC50 (SK-MEL-1): > 256 nM
IC50 (TGBC1TKB): 210 nM
IC50 (PANC-08-13): 77.2 nM
IC50 (no-11): 30.5 nM
IC50 (SH-4): 41.4 nM
IC50 (ATN-1): > 256 nM
IC50 (HEL): 38.9 nM
IC50 (EW-11): 75.4 nM
IC50 (EFM-19): > 256 nM
IC50 (GB-1): 21.9 nM
IC50 (NCI-H446): > 256 nM
IC50 (MN-60): 242 nM
IC50 (NCI-H1770): 58.8 nM
IC50 (P30-OHK): > 256 nM
IC50 (NCI-H1092): 141 nM
IC50 (RXF 393): 8.6 nM
IC50 (RCC10RGB): > 256 nM
IC50 (NCI-H526): 187 nM
IC50 (PSN1): 3.18 nM
IC50 (KGN): 7.03 nM
IC50 (NCI-H1838): > 256 nM
IC50 (VM-CUB-1): 53.1 nM
IC50 (HuP-T4): 65.9 nM
IC50 (EFO-21): 89.9 nM
IC50 (NCI-H1355): 24 nM
IC50 (EW-13): 5.18 nM
IC50 (SK-N-FI): > 256 nM
IC50 (NCI-H720): > 256 nM
IC50 (A498): > 256 nM
IC50 (COLO-320-HSR): 185 nM
IC50 (G-401): 10.3 nM
IC50 (LU-139): > 256 nM
IC50 (SW982): 12.9 nM
IC50 (Lu-65): 202 nM
IC50 (EC-GI-10): > 256 nM
IC50 (SCH): > 256 nM
IC50 (SK-MEL-2): 125 nM
IC50 (HH): 142 nM
IC50 (L-363): 69 nM
IC50 (LS-123): 24.4 nM
IC50 (SJSA-1): 20.4 nM

CC(O)(CS(=O)(=O)c1ccc(F)cc1)C(=O)Nc1ccc(C#N)c(C(F)(F)F)c1 (stereo not drawn) [BICALUTAMIDE]
IC50 (KYSE-410): > 1020 nM
IC50 (MV4-11): > 1020 nM
IC50 (LB2241-RCC): > 1020 nM
IC50 (M14): > 1020 nM
IC50 (KURAMOCHI): > 1020 nM
IC50 (CAS-1): > 1020 nM
IC50 (KG-1): > 1020 nM
IC50 (NH-12): > 1020 nM
IC50 (NCI-H69): > 1020 nM
IC50 (EKVX): > 1020 nM
IC50 (LU-134-A): > 1020 nM
IC50 (IST-MES1): > 1020 nM
IC50 (ES6): > 1020 nM
IC50 (NCI-H23): > 1020 nM
IC50 (KARPAS-299): > 1020 nM
IC50 (NKM-1): > 1020 nM
IC50 (LAN-6): > 1020 nM
IC50 (TE-11): > 1020 nM
IC50 (OVCAR-4): > 1020 nM
IC50 (SF-268): > 1020 nM
IC50 (LB2518-MEL): > 1020 nM
IC50 (LU-99A): > 1020 nM
IC50 (TE-1): > 1020 nM
IC50 (SK-MEL-1): > 1020 nM
IC50 (TGBC1TKB): > 1020 nM
IC50 (PANC-08-13): > 1020 nM
IC50 (no-11): > 1020 nM
IC50 (SH-4): > 1020 nM
IC50 (ATN-1): > 1020 nM
IC50 (HEL): > 1020 nM
IC50 (EW-11): > 1020 nM
IC50 (EFM-19): > 1020 nM
IC50 (GB-1): > 1020 nM
IC50 (NCI-H446): > 1020 nM
IC50 (MN-60): > 1020 nM
IC50 (NCI-H1770): > 1020 nM
IC50 (P30-OHK): > 1020 nM
IC50 (NCI-H1092): > 1020 nM
IC50 (RXF 393): > 1020 nM
IC50 (RCC10RGB): > 1020 nM
IC50 (NCI-H526): > 1020 nM
IC50 (PSN1): > 1020 nM
IC50 (KGN): > 1020 nM
IC50 (NCI-H1838): > 1020 nM
IC50 (VM-CUB-1): > 1020 nM
IC50 (HuP-T4): > 1020 nM
IC50 (EFO-21): > 1020 nM
IC50 (NCI-H1355): > 1020 nM
IC50 (EW-13): > 1020 nM
IC50 (SK-N-FI): > 1020 nM
IC50 (NCI-H720): > 1020 nM
IC50 (A498): > 1020 nM
IC50 (COLO-320-HSR): > 1020 nM
IC50 (G-401): > 1020 nM
IC50 (LU-139): > 1020 nM
IC50 (SW982): > 1020 nM
IC50 (Lu-65): > 1020 nM
IC50 (EC-GI-10): > 1020 nM
IC50 (SCH): > 1020 nM
IC50 (SK-MEL-2): > 1020 nM
IC50 (HH): > 1020 nM
IC50 (L-363): > 1020 nM
IC50 (LS-123): > 1020 nM
IC50 (SJSA-1): > 1020 nM
